The text below walks through data of ChEMBL document CHEMBL1138818, “Design and synthesis of cyclic urea compounds: a pharmacological study for retinoidal activity” (2004).

Assay [1] concerns HL-60. As to the kind of experiment: Effective concentration required for induction of differentiation of HL-60 cells into mature granulocytes. The format is functional. Particulars: Homo sapiens, read-out: ED50 (the source's name).
Assay [2] relates to HL-60. In words: Effective concentration required for induction of differentiation of HL-60 cells into mature granulocytes.( >10e-6= slight activity at 10e-6). The settings on record: Homo sapiens, read-out: ED50 (the source's name). The format is functional.
Assay [3] relates to HL-60. As to the kind of experiment: Effective concentration required for induction of differentiation of HL-60 cells into mature granulocytes. IA = No activity at E-6. In kind it is functional, cell-based. The settings on record: Homo sapiens.

Each structure is given as a SMILES string. Calls of active or inactive are those of the source. The calls are words filed in the database; no cut-off is given here.

As to `CC1=C(/C=C/C(C)=C/C=C/C(C)=C/C(=O)O)C(C)(C)CCC1` [TRETINOIN], the EC50 with HL-60 [1] was determined as 2.4 nM.

`CC1(C)CCC(C)(C)c2cc(NC(=O)Nc3ccc(C(=O)O)cc3)ccc21`: the EC50 with HL-60 [2] was above 10000 nM.

As to `CC1(C)CCC(C)(C)c2cc(N3CCCN(c4ccc(C(=O)O)cc4)C3=O)ccc21`, the ED50 result in the assay on HL-60 [3] is “inactive”.

Take `CC(C)(C)c1cc(N2CCCN(c3ccc(C(=O)O)cc3)C2=O)cc(C(C)(C)C)c1`: in the assay with HL-60 [1], the EC50 amounted to 490 nM.

As to `CC(C)(C)c1ccc(N2CCN(c3ccc(C(=O)O)cc3)C2=O)cc1`, the ED50 entry with HL-60 [3] is “inactive”.

Take `CC(C)(C)c1cc(N2CCN(c3ccc(C(=O)O)cc3)C2=O)cc(C(C)(C)C)c1`: the EC50 in the assay with HL-60 [1] is 8.3 nM.

Regarding `O=C(O)c1ccc(N2CCCN(c3ccccc3)C2=O)cc1`, the ED50 entry with HL-60 [3] was “inactive”.

In the case of `CC(C)(C)c1ccc(N2CCCN(c3ccc(C(=O)O)cc3)C2=O)cc1`, the ED50 entry with HL-60 [3] is “inactive”.

Regarding `O=C(O)c1ccc(N2CCN(c3ccccc3)C2=O)cc1`, in the assay with HL-60 [3], the ED50 result is “inactive”.

In the case of `CC1(C)CCC(C)(C)c2cc(NC(=O)c3ccc(C(=O)O)cc3)ccc21` [TAMIBAROTENE], the EC50 with HL-60 [1] stood at 0.8 nM.

`CC1(C)CCC(C)(C)c2cc(N3CCN(c4ccc(C(=O)O)cc4)C3=O)ccc21`: the EC50 with HL-60 [1] is 120 nM.
